Assay results from EPA's ToxRefDB 2.

Experiments:
rabbit = details: Prenatal developmental toxicity study, himalayan, Dermal, Topical, dose end: 18 GD
mouse [1] = details: Multigenerational reproductive toxicity study, cd1, Oral, Water, dose end: 2 generation
mouse [2] = details: Subchronic inhalation toxicity, other, Whole-Body, dose end: 13 week, group: systemic
rat [3] = details: Prenatal developmental toxicity study, sprague dawley, Oral, Gavage/Intubation, dose end: 20 GD
mouse [4] = details: Subchronic oral toxicity in rodents, cd1, Feed, dose end: 119 day, group: systemic
mouse [5] = details: Subchronic inhalation toxicity, b6c3f1, Whole-Body, dose end: 12 week, group: systemic
rat [6] = details: Combined chronic toxicity/carcinogenicity, sprague dawley, Inhalation, Whole-Body, dose end: 2 year, group: systemic
mouse [7] = details: Subchronic inhalation toxicity, b6c3f1, Whole-Body, dose end: 13 week, group: systemic, systemic / organ weight / kidney / absolute + systemic / organ weight / kidney / relative to body weight + systemic / organ weight / liver…
rat [8] = details: Prenatal developmental toxicity study, sprague dawley, Inhalation, Whole-Body, dose end: 15 GD
rat [9] = details: Prenatal developmental toxicity study, sprague dawley, Oral, Gavage/Intubation, dose end: 15 GD
rat [10] = details: Subchronic inhalation toxicity, fischer, Whole-Body, dose end: 12 week, group: systemic
mouse [11] = details: Prenatal developmental toxicity study, other, Oral, Gavage/Intubation, dose end: 15 GD, group: developmental
mouse [12] = details: Prenatal developmental toxicity study, other, Injection, Intraperitoneal, dose end: 15 GD
rat [13] = details: Subchronic oral toxicity in rodents, wistar, Feed, dose end: 104 day, group: systemic
rat [14] = details: Subchronic inhalation toxicity, fischer, Whole-Body, dose end: 13 week, group: systemic
rat [15] = details: Prenatal developmental toxicity study; long evans; Inhalation; Whole-Body; dose end: 15 GD; group: developmental; systemic / in life observation / body weight / fetal weight
[16] = group: developmental, developmental / developmental malformation / general / [other]
[17] = group: maternal, systemic / in life observation / body weight / body weight + systemic / in life observation / clinical signs / skin ulceration
[18] = group: offspring, developmental / developmental malformation / bone / domed head + developmental / developmental malformation / nose / ecchymosis + systemic…
[19] = group: parental, systemic / organ weight / epididymis / absolute + systemic / organ weight / liver / absolute + systemic / organ weight / liver / relative to…
[20] = group: parental, systemic / organ weight / epididymis / absolute + systemic / organ weight / liver / absolute + systemic / pathology gross / sperm measure / …
[21] = group: reproductive, reproductive / reproductive performance / fertility / fertility + reproductive / offspring survival early / litter size / litter size + …
[22] = systemic / clinical chemistry / alanine aminotransferase (alt/sgpt) / alanine aminotransferase (alt/sgpt) + systemic / clinical chemistry / …
[23] = systemic / clinical chemistry / cholesterol / cholesterol + systemic / hematology / erythrocyte (rbc) count differential / erythrocyte (rbc…
[24] = group: developmental, developmental / developmental malformation / bone / incomplete ossification + systemic / in life observation / body weight / fetal weight
[25] = group: developmental, systemic / in life observation / body weight / fetal weight
[26] = group: maternal, systemic / in life observation / body weight / body weight gain + systemic / in life observation / food consumption / food consumption
[27] = systemic / organ weight / liver / absolute + systemic / organ weight / liver / relative to body weight + systemic / pathology microscopic / …
[28] = systemic / in life observation / mortality / mortality + systemic / pathology gross / liver / discolored + systemic / pathology microscopic…
[29] = systemic / pathology microscopic / liver / cytomegaly
[30] = systemic / organ weight / liver / relative to body weight + systemic / pathology microscopic / liver / clear cell focus + systemic / …
[31] = group: maternal, systemic / in life observation / body weight / body weight gain
[32] = group: developmental, developmental / developmental malformation / general / [other] + developmental / developmental malformation / general / anasarca + …
[33] = group: maternal, reproductive / reproductive performance / resorptions / resorptions + systemic / in life observation / body weight / body weight gain + …
[34] = group: maternal, systemic / organ weight / placenta / absolute
[35] = developmental / developmental malformation / general / [other] + developmental / developmental malformation / general / crown-rump length + …
[36] = developmental / developmental malformation / general / crown-rump length + systemic / in life observation / body weight / fetal weight
[37] = group: developmental, developmental / developmental malformation / bone / exencephaly
[38] = group: maternal, reproductive / reproductive performance / resorptions / resorptions
[39] = group: maternal, reproductive / reproductive performance / resorptions / resorptions + systemic / in life observation / body weight / body weight + systemic…
[40] = systemic / clinical chemistry / sodium / sodium + systemic / in life observation / body weight / body weight gain + systemic / in life …
[41] = systemic / hematology / erythrocyte (rbc) count differential / erythrocyte (rbc) + systemic / hematology / mean corpuscular (cell) volume (…

`CN(C)C=O` [N,N-Dimethylformamide] was tested, and the LEL (rabbit; [16]) was 400 mg/kg/day, the LOAEL (rabbit; [16]) was > 400 mg/kg/day and the NEL (rabbit; [16]) was 200 mg/kg/day. For the same molecule, the NOAEL (rabbit; [16]) was ≥ 400 mg/kg/day, the LEL (rabbit; [17]) was 400 mg/kg/day and the LOAEL (rabbit; [17]) was > 400 mg/kg/day. The NEL (rabbit; [17]) was 200 mg/kg/day, the NOAEL (rabbit; [17]) was ≥ 400 mg/kg/day and the LEL (mouse [1]; [18]) was 545 mg/kg/day. For the same molecule, the LOAEL (mouse [1]; [18]) was > 1030 mg/kg/day, the NEL (mouse [1]; [18]) was 185 mg/kg/day and the NOAEL (mouse [1]; [18]) was ≥ 1030 mg/kg/day. For the same molecule, the LEL (mouse [1]; [19]) was 185 mg/kg/day, the NEL (mouse [1]; [19]) was < 185 mg/kg/day and the LOAEL (mouse [1]; [20]) was > 1030 mg/kg/day. The NOAEL (mouse [1]; [20]) was ≥ 1030 mg/kg/day, the NEL (mouse [1]; group: reproductive, reproductive / reproductive performance / fertility / fertility) was 185 mg/kg/day and the LEL (mouse [1]; [21]) was 545 mg/kg/day. For the same molecule, the LOAEL (mouse [1]; [21]) was > 1030 mg/kg/day, the NOAEL (mouse [1]; [21]) was ≥ 1030 mg/kg/day and the LOAEL (mouse [2]; [22]) was > 800 ppm. For the same molecule, the NOAEL (mouse [2]; [22]) was ≥ 800 ppm, the LEL (mouse [2]; [23]) was 50 ppm and the NEL (mouse [2]; [23]) was < 50 ppm. For the same molecule, the LOAEL (rat [3]; [24]) was > 300 mg/kg/day, the NEL (rat [3]; [24]) was 50 mg/kg/day and the NOAEL (rat [3]; [24]) was ≥ 300 mg/kg/day. For the same molecule, the LEL (rat [3]; [25]) was 100 mg/kg/day, the LEL (rat [3]; [26]) was 100 mg/kg/day and the LOAEL (rat [3]; [26]) was > 300 mg/kg/day. For the same molecule, the NEL (rat [3]; [26]) was 50 mg/kg/day, the NOAEL (rat [3]; [26]) was ≥ 300 mg/kg/day and the LOAEL (mouse [4]; [27]) was > 246 mg/kg/day. The NOAEL (mouse [4]; [27]) was ≥ 246 mg/kg/day, the LEL (mouse [4]; systemic / organ weight / liver / relative to body weight) was 96 mg/kg/day and the NEL (mouse [4]; systemic / organ weight / liver / relative to body weight + systemic / clinical chemistry / alanine aminotransferase (alt/sgpt) / alanine …) was 28 mg/kg/day. For the same molecule, the LOAEL (mouse [5]; [28]) was > 1200 ppm, the NOAEL (mouse [5]; [28]) was ≥ 1200 ppm and the LEL (mouse [5]; [29]) was 150 ppm. For the same molecule, the NEL (mouse [5]; [29]) was < 150 ppm, the LOAEL (rat [6]; [30]) was > 400 ppm and the NEL (rat [6]; [30]) was 25 ppm. For the same molecule, the NOAEL (rat [6]; [30]) was ≥ 400 ppm, the LEL (rat [6]; systemic / organ weight / liver / relative to body weight + systemic / pathology microscopic / liver / hypertrophy + systemic / clinical …) was 100 ppm and the LEL (mouse [7]) was 50 ppm. The LOAEL (mouse [7]) was > 800 ppm, the NEL (mouse [7]) was < 50 ppm and the NOAEL (mouse [7]) was ≥ 800 ppm. For the same molecule, the LEL (rat [8]; [25]) was 300 ppm, the LOAEL (rat [8]; [25]) was > 300 ppm and the NEL (rat [8]; [25]) was 30 ppm. For the same molecule, the NOAEL (rat [8]; [25]) was ≥ 300 ppm, the LEL (rat [8]; [31]) was 300 ppm and the LOAEL (rat [8]; [31]) was > 300 ppm. The NEL (rat [8]; [31]) was 30 ppm, the NOAEL (rat [8]; [31]) was ≥ 300 ppm and the LOAEL (rat [9]; [32]) was > 1510 mg/kg/day. The NEL (rat [9]; [32]) was 166 mg/kg/day, the NOAEL (rat [9]; [32]) was ≥ 1510 mg/kg/day and the LEL (rat [9]; group: developmental, developmental / developmental malformation / general / [other] + developmental / developmental malformation / general / crown-rump length + …) was 503 mg/kg/day. The LOAEL (rat [9]; [33]) was > 1510 mg/kg/day, the NOAEL (rat [9]; [33]) was ≥ 1510 mg/kg/day and the LEL (rat [9]; [34]) was 166 mg/kg/day. For the same molecule, the NEL (rat [9]; [34]) was < 166 mg/kg/day, the LOAEL (rat [10]; [22]) was > 1200 ppm and the NOAEL (rat [10]; [22]) was ≥ 1200 ppm. The LEL (rat [10]; systemic / clinical chemistry / alkaline phosphatase (alp/alk) / alkaline phosphatase (alp/alk)) was 300 ppm, the NEL (rat [10]; systemic / clinical chemistry / alkaline phosphatase (alp/alk) / alkaline phosphatase (alp/alk) + systemic / clinical chemistry / aspartate …) was 150 ppm and the LOAEL (mouse [11]; [35]) was > 548 mg/kg/day. The NOAEL (mouse [11]; [35]) was ≥ 548 mg/kg/day, the LEL (mouse [11]; [36]) was 182 mg/kg/day and the NEL (mouse [11]; [36]) was < 182 mg/kg/day. The LEL (mouse [12]; [37]) was 944 mg/kg/day, the LOAEL (mouse [12]; [37]) was > 944 mg/kg/day and the NEL (mouse [12]; [37]) was 378 mg/kg/day. For the same molecule, the NOAEL (mouse [12]; [37]) was ≥ 944 mg/kg/day, the LEL (mouse [12]; [38]) was 378 mg/kg/day and the NEL (mouse [12]; [38]) was < 378 mg/kg/day. For the same molecule, the LOAEL (mouse [12]; [39]) was > 944 mg/kg/day, the NOAEL (mouse [12]; [39]) was ≥ 944 mg/kg/day and the LOAEL (rat [13]; [40]) was > 210 mg/kg/day. The NOAEL (rat [13]; [40]) was ≥ 210 mg/kg/day, the LEL (rat [13]; systemic / in life observation / food consumption / food consumption) was 69 mg/kg/day and the NEL (rat [13]; systemic / in life observation / food consumption / food consumption + systemic / in life observation / body weight / body weight gain + …) was 20 mg/kg/day. The LOAEL (rat [14]; [22]) was > 800 ppm, the NOAEL (rat [14]; [22]) was ≥ 800 ppm and the LEL (rat [14]; [41]) was 50 ppm. For the same molecule, the NEL (rat [14]; [41]) was < 50 ppm, the LEL (rat [15]) was 172 ppm and the LOAEL (rat [15]) was > 172 ppm. The NEL (rat [15]) was 18 ppm and the NOAEL (rat [15]) was ≥ 172 ppm.
